# Laboratory results taken from patent publication EP4745137A1 (Gluetacs Therapeutics (Shanghai) Co., Ltd., priority 2023, dated 2025).
# Key:
# [1] = molecular target: T1, IKZF3 (Homo sapiens, UniProt Q96SW2+Q9UKT9); test: Western-blot assay of substrate protein degradation in hPBMCs, IKZF3; assay type: cell-based; conditions: 24 hours of compound treatment, compounds tested at 50 nM and 500 nM (concentration of the table not stated)
# T1 construct: endogenous in cells; host or cells: hPBMCs (Milecell Biotechnologies)
# [2] = molecular target: T2, human Cereblon WT GST-tagged protein (Homo sapiens, UniProt Q96SW2); test: CRBN-binding affinity by HTRF (CEREBLON BINDING kit); conditions: HTRF inhibitory activity, CEREBLON BINDING kit; read-out: HTRF IC50
# T2 construct: purchased CISBIO 64BDCRBNPEH
# [3] = molecular target: T3, GSPT1 (Homo sapiens, UniProt P15170+Q96SW2); test: Western-blot assay of substrate protein degradation in hPBMCs, GSPT1; assay type: cell-based; conditions: 24 hours of compound treatment, compounds tested at 50 nM and 500 nM (concentration of the table not stated)
# T3 construct: endogenous in cells; host or cells: hPBMCs (Milecell Biotechnologies)
# [4] = molecular target: T4, IKZF2 (Homo sapiens, UniProt Q96SW2+Q9UKS7); test: Western-blot assay of substrate protein degradation in hPBMCs, IKZF2; assay type: cell-based; conditions: 24 hours of compound treatment, compounds tested at 50 nM and 500 nM (concentration of the table not stated)
# T4 construct: endogenous in cells; host or cells: hPBMCs (Milecell Biotechnologies)
# [5] = molecular target: T5, WEE1 (Homo sapiens, UniProt P30291+Q96SW2); test: Western-blot assay of substrate protein degradation in hPBMCs, WEE1; assay type: cell-based; conditions: 24 hours of compound treatment, compounds tested at 50 nM and 500 nM (concentration of the table not stated)
# T5 construct: endogenous in cells; host or cells: hPBMCs (Milecell Biotechnologies)
# [6] = molecular target: T6, IKZF1 (Homo sapiens, UniProt Q13422+Q96SW2); test: Western-blot assay of substrate protein degradation in hPBMCs, IKZF1; assay type: cell-based; conditions: 24 hours of compound treatment, compounds tested at 50 nM and 500 nM (concentration of the table not stated)
# T6 construct: endogenous in cells; host or cells: hPBMCs (Milecell Biotechnologies)
# [7] = molecular target: T7, CK1α (Homo sapiens, UniProt P48729+Q96SW2); test: Western-blot assay of substrate protein degradation in hPBMCs, CK1α; assay type: cell-based; conditions: 24 hours of compound treatment, compounds tested at 50 nM and 500 nM (concentration of the table not stated)
# T7 construct: endogenous in cells; host or cells: hPBMCs (Milecell Biotechnologies)
# T7 sequence (P48729 whole entry): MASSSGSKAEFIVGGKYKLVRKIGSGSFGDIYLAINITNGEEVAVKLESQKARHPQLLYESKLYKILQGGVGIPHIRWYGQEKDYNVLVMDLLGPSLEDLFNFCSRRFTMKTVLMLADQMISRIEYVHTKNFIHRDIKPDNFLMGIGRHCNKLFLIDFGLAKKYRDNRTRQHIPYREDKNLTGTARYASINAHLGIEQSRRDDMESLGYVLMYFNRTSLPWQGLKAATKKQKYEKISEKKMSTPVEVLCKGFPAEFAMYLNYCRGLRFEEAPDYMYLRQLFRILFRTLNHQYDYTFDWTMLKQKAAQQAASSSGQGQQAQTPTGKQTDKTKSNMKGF
# T7 sequence (Q96SW2 whole entry): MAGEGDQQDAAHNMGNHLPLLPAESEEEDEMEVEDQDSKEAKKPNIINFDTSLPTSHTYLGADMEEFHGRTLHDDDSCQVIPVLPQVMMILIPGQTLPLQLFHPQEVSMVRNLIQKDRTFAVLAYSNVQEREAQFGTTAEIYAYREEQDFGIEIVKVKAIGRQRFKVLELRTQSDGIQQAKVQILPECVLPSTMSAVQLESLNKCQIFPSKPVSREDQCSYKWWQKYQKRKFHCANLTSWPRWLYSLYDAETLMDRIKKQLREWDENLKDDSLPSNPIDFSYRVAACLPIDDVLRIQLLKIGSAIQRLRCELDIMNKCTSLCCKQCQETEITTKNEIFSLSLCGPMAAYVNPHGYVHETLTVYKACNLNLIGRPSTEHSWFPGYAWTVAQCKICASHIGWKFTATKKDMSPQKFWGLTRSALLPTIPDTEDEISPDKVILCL
# T7 sequence (Q16531 whole entry partner): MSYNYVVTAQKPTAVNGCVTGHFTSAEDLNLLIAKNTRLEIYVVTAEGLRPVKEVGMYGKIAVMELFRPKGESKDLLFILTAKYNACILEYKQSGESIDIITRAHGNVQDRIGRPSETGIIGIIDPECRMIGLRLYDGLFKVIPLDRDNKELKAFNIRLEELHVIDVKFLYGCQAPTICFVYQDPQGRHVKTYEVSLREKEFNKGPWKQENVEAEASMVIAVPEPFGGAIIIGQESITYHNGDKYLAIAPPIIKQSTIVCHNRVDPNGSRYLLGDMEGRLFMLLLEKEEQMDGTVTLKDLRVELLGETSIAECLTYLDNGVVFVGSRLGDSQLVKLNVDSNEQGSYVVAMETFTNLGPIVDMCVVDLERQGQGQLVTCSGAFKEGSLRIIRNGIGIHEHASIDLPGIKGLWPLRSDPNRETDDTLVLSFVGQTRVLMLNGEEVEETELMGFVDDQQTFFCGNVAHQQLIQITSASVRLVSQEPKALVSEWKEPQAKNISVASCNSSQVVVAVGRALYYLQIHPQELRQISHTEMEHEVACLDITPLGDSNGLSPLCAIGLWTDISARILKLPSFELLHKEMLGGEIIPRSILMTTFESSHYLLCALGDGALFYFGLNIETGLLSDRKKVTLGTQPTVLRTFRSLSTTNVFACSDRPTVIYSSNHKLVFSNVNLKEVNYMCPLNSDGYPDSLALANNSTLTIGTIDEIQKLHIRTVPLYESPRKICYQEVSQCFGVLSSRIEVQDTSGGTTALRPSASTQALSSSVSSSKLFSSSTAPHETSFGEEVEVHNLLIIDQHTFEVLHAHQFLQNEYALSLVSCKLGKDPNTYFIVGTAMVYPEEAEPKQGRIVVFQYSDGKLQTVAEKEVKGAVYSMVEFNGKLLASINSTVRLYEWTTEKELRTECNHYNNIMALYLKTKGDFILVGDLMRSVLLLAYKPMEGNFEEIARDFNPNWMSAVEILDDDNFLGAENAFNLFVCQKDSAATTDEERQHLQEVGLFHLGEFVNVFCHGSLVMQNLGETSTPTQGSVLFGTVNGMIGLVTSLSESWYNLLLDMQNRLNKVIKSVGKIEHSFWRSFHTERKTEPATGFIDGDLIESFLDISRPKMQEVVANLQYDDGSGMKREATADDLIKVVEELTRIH
# T2 sequence (Q96SW2 whole entry): as the sequence (Q96SW2 whole entry) above
# T1 sequence (Q9UKT9 whole entry): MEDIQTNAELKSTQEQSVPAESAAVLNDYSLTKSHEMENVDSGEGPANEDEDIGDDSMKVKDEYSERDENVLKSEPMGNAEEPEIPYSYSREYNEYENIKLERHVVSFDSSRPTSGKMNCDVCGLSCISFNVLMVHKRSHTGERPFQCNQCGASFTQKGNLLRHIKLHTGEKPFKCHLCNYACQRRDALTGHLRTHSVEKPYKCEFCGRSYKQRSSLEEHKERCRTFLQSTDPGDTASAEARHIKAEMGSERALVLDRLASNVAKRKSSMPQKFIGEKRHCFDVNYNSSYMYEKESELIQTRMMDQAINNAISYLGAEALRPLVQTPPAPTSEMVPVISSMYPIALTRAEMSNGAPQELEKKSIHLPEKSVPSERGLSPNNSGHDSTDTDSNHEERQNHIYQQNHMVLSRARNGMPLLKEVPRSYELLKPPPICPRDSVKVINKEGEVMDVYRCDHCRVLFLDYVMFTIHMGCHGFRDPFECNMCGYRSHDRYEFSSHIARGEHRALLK
# T1 sequence (Q96SW2 whole entry): as the sequence (Q96SW2 whole entry) above
# T1 sequence (Q16531 whole entry partner): as the sequence (Q16531 whole entry partner) above
# T4 sequence (Q9UKS7 whole entry): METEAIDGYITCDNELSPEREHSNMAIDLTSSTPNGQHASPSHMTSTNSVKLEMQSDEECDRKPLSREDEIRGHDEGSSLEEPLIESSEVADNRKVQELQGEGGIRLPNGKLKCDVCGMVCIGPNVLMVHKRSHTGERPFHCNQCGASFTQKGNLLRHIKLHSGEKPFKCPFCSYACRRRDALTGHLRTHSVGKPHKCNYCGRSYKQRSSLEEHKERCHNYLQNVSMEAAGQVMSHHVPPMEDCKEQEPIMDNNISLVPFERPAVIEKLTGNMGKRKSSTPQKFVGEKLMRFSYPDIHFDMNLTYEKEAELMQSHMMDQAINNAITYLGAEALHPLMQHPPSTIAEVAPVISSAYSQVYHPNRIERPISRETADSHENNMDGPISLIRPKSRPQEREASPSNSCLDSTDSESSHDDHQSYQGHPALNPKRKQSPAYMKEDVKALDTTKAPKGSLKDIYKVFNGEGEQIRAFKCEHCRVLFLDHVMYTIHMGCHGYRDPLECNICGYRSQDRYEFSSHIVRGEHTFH
# T4 sequence (Q96SW2 whole entry): as the sequence (Q96SW2 whole entry) above
# T4 sequence (Q16531 whole entry partner): as the sequence (Q16531 whole entry partner) above
# T5 sequence (P30291 whole entry): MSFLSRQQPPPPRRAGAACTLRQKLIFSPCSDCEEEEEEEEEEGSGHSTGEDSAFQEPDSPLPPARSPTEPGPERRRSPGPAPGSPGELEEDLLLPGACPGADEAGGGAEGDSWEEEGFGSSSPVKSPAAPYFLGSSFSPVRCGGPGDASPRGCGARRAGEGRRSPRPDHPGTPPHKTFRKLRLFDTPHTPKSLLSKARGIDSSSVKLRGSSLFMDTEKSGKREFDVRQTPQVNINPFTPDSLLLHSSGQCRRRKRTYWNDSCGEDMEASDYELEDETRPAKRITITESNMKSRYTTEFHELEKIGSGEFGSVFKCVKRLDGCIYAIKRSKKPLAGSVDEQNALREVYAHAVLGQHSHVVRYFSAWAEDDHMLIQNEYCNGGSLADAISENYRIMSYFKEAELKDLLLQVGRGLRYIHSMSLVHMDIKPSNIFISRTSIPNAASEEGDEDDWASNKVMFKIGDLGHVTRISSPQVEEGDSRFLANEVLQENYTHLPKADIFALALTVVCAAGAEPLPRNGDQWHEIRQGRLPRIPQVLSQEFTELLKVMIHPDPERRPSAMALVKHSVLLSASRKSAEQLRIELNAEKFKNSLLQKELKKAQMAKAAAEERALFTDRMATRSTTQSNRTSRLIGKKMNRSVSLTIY
# T5 sequence (Q96SW2 whole entry): as the sequence (Q96SW2 whole entry) above
# T5 sequence (Q16531 whole entry partner): as the sequence (Q16531 whole entry partner) above
# T6 sequence (Q13422 whole entry): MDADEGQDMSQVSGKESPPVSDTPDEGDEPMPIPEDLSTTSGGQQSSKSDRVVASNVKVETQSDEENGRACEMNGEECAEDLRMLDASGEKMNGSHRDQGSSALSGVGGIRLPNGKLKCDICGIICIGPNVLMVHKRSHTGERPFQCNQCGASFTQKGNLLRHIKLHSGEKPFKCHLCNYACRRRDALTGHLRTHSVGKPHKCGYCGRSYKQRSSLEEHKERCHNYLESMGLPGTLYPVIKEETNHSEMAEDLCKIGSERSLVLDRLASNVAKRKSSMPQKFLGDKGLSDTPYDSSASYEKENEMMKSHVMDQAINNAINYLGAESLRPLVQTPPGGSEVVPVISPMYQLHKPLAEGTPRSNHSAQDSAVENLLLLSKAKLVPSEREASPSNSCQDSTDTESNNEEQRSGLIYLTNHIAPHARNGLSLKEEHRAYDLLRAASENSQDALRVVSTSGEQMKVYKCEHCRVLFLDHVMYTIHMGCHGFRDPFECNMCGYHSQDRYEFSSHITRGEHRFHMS
# T6 sequence (Q96SW2 whole entry): as the sequence (Q96SW2 whole entry) above
# T6 sequence (Q16531 whole entry partner): as the sequence (Q16531 whole entry partner) above
Structure (SMILES),IKZF3 substrate protein remaining % [1],IC50 [2] [nM],GSPT1 substrate protein remaining % [3],IKZF2 substrate protein remaining % [4],Weel substrate protein remaining % [5],IKZF 1 substrate protein remaining % [6],CK1a substrate protein remaining % [7]
"O=C1CCC(N2Cc3cc(CN4CCN(c5ncnc6ccsc56)CC4)ccc3C2=O)C(=O)N1 (centres unmarked) [GT-04681, 3-(1-oxo-5-((4-(thieno[3,2-d]pyrimidin-4-yl)piperazin-1-yl)methyl)isoindolin-2-yl)piperidine-2,6-dione]",B (80%< substrate protein remaining %≤ 100%),500 to 1000,A (0% ≤ substrate protein remaining % ≤ 80%),B (80%< substrate protein remaining %≤ 100%),B (80%< substrate protein remaining %≤ 100%),B (80%< substrate protein remaining %≤ 100%),A (0% ≤ substrate protein remaining % ≤ 80%)
"O=C1CCC(N2Cc3cc(CN4CCN(c5nc(Cl)nc6ccsc56)CC4)ccc3C2=O)C(=O)N1 (centres unmarked) [GT-04682, 3-(5-((4-(2-chlorothieno[3,2-d]pyrimidin-4-yl)piperazin-1-yl)methyl)-1-oxoisoindolin-2-yl)piperidine-2,6-dione]",B (80%< substrate protein remaining %≤ 100%),500 to 1000,A (0% ≤ substrate protein remaining % ≤ 80%),B (80%< substrate protein remaining %≤ 100%),B (80%< substrate protein remaining %≤ 100%),B (80%< substrate protein remaining %≤ 100%),A (0% ≤ substrate protein remaining % ≤ 80%)
"Cc1nc(N2CCN(Cc3ccc4c(c3)CN(C3CCC(=O)NC3=O)C4=O)CC2)c2ccsc2n1 (centres unmarked) [GT-04693, 3-(5-((4-(2-methylthieno[2,3-d]pyrimidin-4-yl)piperazin-1-yl)methyl)-1-oxoisoindolin-2-yl)piperidine-2,6-dione]",A (0% ≤ substrate protein remaining % ≤ 80%),< 500,A (0% ≤ substrate protein remaining % ≤ 80%),A (0% ≤ substrate protein remaining % ≤ 80%),A (0% ≤ substrate protein remaining % ≤ 80%),B (80%< substrate protein remaining %≤ 100%),B (80%< substrate protein remaining %≤ 100%)
"O=C1CCC(N2Cc3cc(CN4CCN(c5nc6c(c(N7CCOCC7)n5)SCC6)CC4)ccc3C2=O)C(=O)N1 (centres unmarked) [GT-04694, 3-(5-((4-(4-morpholino-6,7-dihydrothieno[3,2-d]pyrimidin-2-yl)piperazin-1-yl)methyl)-1-oxoisoindolin-2-yl)piperidine-2,6-dione]",A (0% ≤ substrate protein remaining % ≤ 80%),< 500,A (0% ≤ substrate protein remaining % ≤ 80%),A (0% ≤ substrate protein remaining % ≤ 80%),A (0% ≤ substrate protein remaining % ≤ 80%),B (80%< substrate protein remaining %≤ 100%),B (80%< substrate protein remaining %≤ 100%)
"O=C1CCC(N2Cc3cc(CN4CCN(c5nc(N6CCNCC6)c6sccc6n5)CC4)ccc3C2=O)C(=O)N1 (centres unmarked) [GT-04698, 3-(1-oxo-5-((4-(4-(piperazin-1-yl)thieno[3,2-d]pyrimidin-2-yl)piperazin-1-yl)methyl)isoindolin-2-yl)piperidine-2,6-dione]",A (0% ≤ substrate protein remaining % ≤ 80%),500 to 1000,A (0% ≤ substrate protein remaining % ≤ 80%),A (0% ≤ substrate protein remaining % ≤ 80%),A (0% ≤ substrate protein remaining % ≤ 80%),A (0% ≤ substrate protein remaining % ≤ 80%),B (80%< substrate protein remaining %≤ 100%)
"O=C1CCC(N2Cc3cc(CN4CC(C5CCOc6cc(F)ccc65)C4)ccc3C2=O)C(=O)N1 (centres unmarked) [GT-04700, 3-(5-((3-(7-fluorochroman-4-yl)azetidin-1-yl)methyl)-1-oxoisoindolin-2-yl)piperidine-2,6-dione]",A (0% ≤ substrate protein remaining % ≤ 80%),500 to 1000,A (0% ≤ substrate protein remaining % ≤ 80%),A (0% ≤ substrate protein remaining % ≤ 80%),B (80%< substrate protein remaining %≤ 100%),A (0% ≤ substrate protein remaining % ≤ 80%),B (80%< substrate protein remaining %≤ 100%)
"O=C1CCC(N2Cc3cc(CN4CCC(c5ncnc6sccc56)CC4)ccc3C2=O)C(=O)N1 (centres unmarked) [GT-04702, 3-(1-oxo-5-((4-(thieno[2,3-d]pyrimidin-4-yl)piperidin-1-yl)methyl)isoindolin-2-yl)piperidine-2,6-dione]",A (0% ≤ substrate protein remaining % ≤ 80%),500 to 1000,A (0% ≤ substrate protein remaining % ≤ 80%),A (0% ≤ substrate protein remaining % ≤ 80%),B (80%< substrate protein remaining %≤ 100%),A (0% ≤ substrate protein remaining % ≤ 80%),B (80%< substrate protein remaining %≤ 100%)
"CC(C)c1cc2c(N3CCN(Cc4ccc5c(c4)CN(C4CCC(=O)NC4=O)C5=O)CC3)ncnc2s1 (centres unmarked) [GT-04705, 3-(5-((4-(6-isopropylthieno[2,3-d]pyrimidin-4-yl)piperazin-1-yl)methyl)-1-oxoisoindolin-2-yl)piperidine-2,6-dione]",A (0% ≤ substrate protein remaining % ≤ 80%),500 to 1000,A (0% ≤ substrate protein remaining % ≤ 80%),A (0% ≤ substrate protein remaining % ≤ 80%),B (80%< substrate protein remaining %≤ 100%),A (0% ≤ substrate protein remaining % ≤ 80%),A (0% ≤ substrate protein remaining % ≤ 80%)
"Cc1sc2ncnc(N3CCN(Cc4ccc5c(c4)CN(C4CCC(=O)NC4=O)C5=O)CC3)c2c1C (centres unmarked) [GT-04706, 3-(5-((4-(5,6-dimethylthieno[2,3-d]pyrimidin-4-yl)piperazin-1-yl)methyl)-1-oxoisoindolin-2-yl)piperidine-2,6-dione]",A (0% ≤ substrate protein remaining % ≤ 80%),500 to 1000,A (0% ≤ substrate protein remaining % ≤ 80%),A (0% ≤ substrate protein remaining % ≤ 80%),B (80%< substrate protein remaining %≤ 100%),A (0% ≤ substrate protein remaining % ≤ 80%),A (0% ≤ substrate protein remaining % ≤ 80%)
"Cc1sc2ncnc(N3CCCN(Cc4ccc5c(c4)CN(C4CCC(=O)NC4=O)C5=O)CC3)c2c1C (centres unmarked) [GT-04707, 3-(5-((4-(5,6-dimethylthieno[2,3-d]pyrimidin-4-yl)-1,4-diazepan-1-yl)methyl)-1-oxoisoindolin-2-yl)piperidine-2,6-dione]",A (0% ≤ substrate protein remaining % ≤ 80%),< 500,A (0% ≤ substrate protein remaining % ≤ 80%),A (0% ≤ substrate protein remaining % ≤ 80%),B (80%< substrate protein remaining %≤ 100%),A (0% ≤ substrate protein remaining % ≤ 80%),A (0% ≤ substrate protein remaining % ≤ 80%)
"O=C1CCC(N2Cc3cc(CN4CCN(c5ncnc6scc(-c7ccccc7)c56)CC4)ccc3C2=O)C(=O)N1 (centres unmarked) [GT-04709, 3-(1-oxo-5-((4-(5-phenylthieno[2,3-d]pyrimidin-4-yl)piperazin-1-yl)methyl)isoindolin-2-yl)piperidine-2,6-dione]",A (0% ≤ substrate protein remaining % ≤ 80%),< 500,A (0% ≤ substrate protein remaining % ≤ 80%),B (80%< substrate protein remaining %≤ 100%),B (80%< substrate protein remaining %≤ 100%),B (80%< substrate protein remaining %≤ 100%),A (0% ≤ substrate protein remaining % ≤ 80%)
